From ChEMBL document CHEMBL6087460, “Generating a Peptide Library Using the Repeats of Amino Acid Scaffolds Created by Sliding the Framework of a 7-mer Human Chemerin Segment and Discovery of Potent Antibacterial and Antimycobacterial Peptides” (J Med Chem, 2025)
The source made the active and inactive calls. The calls are words filed in the database; no cut-off is given here. Where a SMILES comes first, the peptide text is derived from it.

How the values were obtained:
[1] = Drug localization in cytoplasm of Mycobacterium smegmatis at 1 ug/ml by confocal microscopy; format: ADME, subcellular; conditions: mycolicibacterium smegmatis; dose 1 µg/ml
[2] = Drug localization in cell membrane of Escherichia coli ATCC 25922 at 3 times MIC by confocal microscopy; format: ADME, cell membranes
Staphylococcus aureus [3] = assay: Induction of membrane depolarization in Staphylococcus aureus ATCC 25923 by diSC3-5 dye based analysis; format: functional, organism-based
Escherichia coli [4] = assay: Bactericidal activity against Escherichia coli ATCC 25922 incubated for 16 to 18 hrs; format: functional; conditions: time 16-18 hrs
[5] = Hemolytic activity in human RBC assessed as disruption of membrane integrity by Alexa Fluor-Annexin V staining based analysis; format: toxicity, cell-based; conditions: erythrocyte
[6] = (§1) Cytotoxicity against rat L6 cells assessed as cell viability at 100 uM incubated for 24 hrs by MTT assay relative to control; format: toxicity, cell-based; conditions: L6 cells, read-out: Activity
Escherichia coli [7] = assay: Antibacterial activity against Escherichia coli ATCC 25922 incubated for 16 to 18 hrs by broth dilution assay; format: functional; conditions: time 16-18 hrs
Bacillus subtilis = assay: Antibacterial activity against Bacillus subtilis 6633 incubated for 16 to 18 hrs by broth dilution assay; format: functional; conditions: time 16-18 hrs
[8] = (§2) Cytotoxicity against mouse 3T3-L1 cells assessed as cell viability at 100 uM incubated for 24 hrs by MTT assay relative to control; format: toxicity, cell-based; conditions: 3T3-L1 cells, read-out: Activity
Escherichia coli [9] = assay: Disruption of membrane integrity in Escherichia coli ATCC 25922 by PI staining based analysis; format: functional, organism-based
[10] = Toxicity in BALB/c mouse infected with Escherichia coli ATCC 25922 assessed as animal survival at 2.5 mg/kg, iv administered thrice at 1,3 and 5 hrs post-infection measured after 7 days; format: organism-based; conditions: in vivo, 168 h, time 7 day
Escherichia coli [11] = assay: Antibacterial activity against Escherichia coli ATCC 25922 infected in BALB/c mouse assessed as bacterial count in kidney at 5 mg/kg, iv administered thrice at 1,3 and 5 hrs post-infection measured after 24 hrs post-last dose (Rvb ~ 1.8 x10^7 CFU/mL); format: functional; conditions: time 29 hrs
[12] = Toxicity in BALB/c mouse assessed as change in ALT level at 15 mg/kg, iv administered thrice at 2 hrs interval measured after 7 days; format: organism-based; conditions: in vivo, 168 h, time 7 day
Staphylococcus aureus [13] = assay: Bactericidal activity against Staphylococcus aureus ATCC 25923 incubated for 16 to 18 hrs; format: functional; conditions: time 16-18 hrs
[14] = Retention time of compound by RP-HPLC method; format: physicochemical
Escherichia coli [15] = assay: Antibacterial activity against Escherichia coli ATCC 25922 infected in BALB/c mouse assessed as bacterial load in blood at 5 mg/kg, iv administered thrice at 1,3 and 5 hrs post-infection measured after 24 hrs post-last dose (Rvb ~ 4 x10^6 CFU/mL); format: functional; conditions: time 29 hrs
Staphylococcus aureus [16] = assay: Disruption of plasma membrane integrity in Staphylococcus aureus ATCC 25923 by SYTOX-Green uptake assay; format: functional, organism-based
Escherichia coli [17] = assay: Induction of membrane depolarization in Escherichia coli ATCC 25922 by diSC3-5 dye based analysis; format: functional, organism-based
[18] = Toxicity in BALB/c mouse infected with Escherichia coli ATCC 25922 assessed as animal survival at 5 mg/kg, iv administered thrice at 1,3 and 5 hrs post-infection measured after 7 days; format: organism-based; conditions: in vivo, 168 h, time 7 day
[19] = system: Mycolicibacterium smegmatis; assay: Antitubercular activity against Mycobacterium smegmatis incubated for 24 hrs by rezasurin dye based assay; format: functional
Escherichia coli [20] = assay: Antibacterial activity against Escherichia coli ATCC 25922 infected in BALB/c mouse assessed as bacterial count in blood at 5 mg/kg, iv administered thrice at 1,3 and 5 hrs post-infection measured after 24 hrs post-last dose (Rvb ~ 9.6 x10^6 CFU/mL); format: functional; conditions: time 29 hrs
Klebsiella pneumoniae = assay: Antibacterial activity against Klebsiella pneumoniae ATCC 27736 incubated for 16 to 18 hrs by broth dilution assay; format: functional; conditions: time 16-18 hrs
Staphylococcus aureus [21] = assay: Antibacterial activity against methicillin-resistant Staphylococcus aureus BAA-44 incubated for 16 to 18 hrs by broth dilution assay; format: functional; conditions: time 16-18 hrs
Staphylococcus aureus [22] = assay: Bactericidal activity against Staphylococcus aureus ATCC 25923 at MIC incubated for 45 mins by time kill assay; format: functional, organism-based
Staphylococcus aureus [23] = assay: Disruption of membrane integrity in Staphylococcus aureus ATCC 25923 by PI staining based analysis; format: functional, organism-based
[24] = Toxicity in BALB/c mouse assessed as animal survival at 15 mg/kg, iv administered thrice at 2 hrs interval measured after 7 days; format: organism-based; conditions: in vivo, 168 h, time 7 day
Staphylococcus aureus [25] = assay: Antibacterial activity against Staphylococcus aureus ATCC 25923 incubated for 16 to 18 hrs in presence of 10 percent human serum by broth dilution assay; format: functional; conditions: time 16-18 hrs
Escherichia coli [26] = assay: Disruption of plasma membrane integrity in Escherichia coli ATCC 25922 by SYTOX-Green uptake assay; format: functional, organism-based
Escherichia coli [27] = assay: Antibacterial activity against Escherichia coli ATCC 25922 incubated for 16 to 18 hrs in presence of 10 percent human serum by broth dilution assay; format: functional; conditions: time 16-18 hrs
Staphylococcus aureus [28] = assay: Antibacterial activity against Staphylococcus aureus ATCC 25923 incubated for 16 to 18 hrs by broth dilution assay; format: functional; conditions: time 16-18 hrs
[29] = Hemolytic activity in human RBC measured after 40 mins by absorbance based assay; format: toxicity, cell-based, Erythrocyte; conditions: human red blood cells
Pseudomonas aeruginosa = assay: Antibacterial activity against Pseudomonas aeruginosa ATCC BAA-427 incubated for 16 to 18 hrs by broth dilution assay; format: functional; conditions: time 16-18 hrs
[30] = Toxicity in BALB/c mouse assessed as change in AST level at 15 mg/kg, iv administered thrice at 2 hrs interval measured after 7 days; format: organism-based; conditions: in vivo, 168 h, time 7 day
Escherichia coli [31] = assay: Antibacterial activity against Escherichia coli ATCC 25922 infected in BALB/c mouse assessed as bacterial count in liver at 5 mg/kg, iv administered thrice at 1,3 and 5 hrs post-infection measured after 24 hrs post-last dose (Rvb ~ 2.3 x10^7 CFU/mL); format: functional; conditions: time 29 hrs
Staphylococcus aureus [32] = assay: Antibacterial activity against methicillin-resistant Staphylococcus aureus 33591 incubated for 16 to 18 hrs by broth dilution assay; format: functional; conditions: time 16-18 hrs
Escherichia coli [33] = assay: Antibacterial activity against Escherichia coli ATCC 25922 infected in BALB/c mouse assessed as bacterial count in spleen at 5 mg/kg, iv administered thrice at 1,3 and 5 hrs post-infection measured after 24 hrs post-last dose (Rvb ~ 1.9 x10^7 CFU/mL); format: functional; conditions: time 29 hrs
Escherichia coli [34] = assay: Bactericidal activity against Escherichia coli ATCC 25922 at MIC incubated for 30 mins by time kill assay; format: functional, organism-based
Escherichia coli [35] = assay: Bactericidal activity against Escherichia coli ATCC 25922 at MIC incubated for 45 mins by time kill assay; format: functional, organism-based
Escherichia coli [36] = assay: Bactericidal activity against Escherichia coli ATCC 25922 at MIC incubated for 60 mins by time kill assay; format: functional, organism-based
L6 = assay: as §1; format: toxicity, cell-based; conditions: l6, 24 h, 100 µM
3T3-L1 = assay: as §2; format: toxicity, cell-based; conditions: 3t3-l1, 24 h, 100 µM
[37] = Stability in 10 percent human serum assessed as compound remaining measured after 60 mins by RP-HPLC analysis; format: ADME, cell-free; conditions: 10% human serum, read-out: Stability
[38] = Hemolytic activity in human RBC at 100 uM measured after 40 mins by absorbance based assay relative to control; format: toxicity, cell-based, Erythrocyte
Staphylococcus aureus [39] = assay: Bactericidal activity against Staphylococcus aureus ATCC 25923 at MIC incubated for 60 mins by time kill assay; format: functional, organism-based

Compound | Activity (Staphylococcus aureus [3]) | MBC (Escherichia coli [4]) [µM] | Activity [5] | MIC (Escherichia coli [7]) [µM] | MIC (Bacillus subtilis) [µM] | Activity (Escherichia coli [9]) | MBC (Staphylococcus aureus [13]) [µM] | Retention_time [14] [min] | Activity (Staphylococcus aureus [16]) | Activity (Escherichia coli [17]) | MIC [19] [µM] | MIC (Klebsiella pneumoniae) [µM] | MIC (Staphylococcus aureus [21]) [µM] | Activity (Staphylococcus aureus [23]) | MIC (Staphylococcus aureus [25]) [µM] | Activity (Escherichia coli [26]) | MIC (Escherichia coli [27]) [µM] | MIC (Staphylococcus aureus [28]) [µM] | HC50 at 40 min [29] [mM] | MIC (Pseudomonas aeruginosa) [µM] | other results
CC(C)C[C@H](NC(=O)[C@H](CCCNC(=N)N)NC(=O)CNC(=O)[C@@H](NC(=O)[C@H](CC(C)C)NC(=O)[C@H](CCCNC(=N)N)NC(=O)CNC(=O)[C@@H](NC(=O)[C@H](CC(C)C)NC(=O)[C@H](CCCNC(=N)N)NC(=O)CNC(=O)[C@@H](NC(=O)[C@H](CC(C)C)NC(=O)[C@H](CCCNC(=N)N)NC(=O)CNC(=O)c1cc(C(=O)O)ccc1-c1c2ccc(=[N+](C)C)cc-2oc2cc(N(C)C)ccc12)C(C)C)C(C)C)C(C)C)C(=O)N[C@H](C(=O)O)C(C)C.[Cl-] (HELM PEPTIDE1{[CN(C)c1ccc2c(-c3ccc(C(=O)O)cc3C(=O)[*:2])c3ccc(=[N+](C)C)cc-3oc2c1].G.R.L.V.G.R.L.V.G.R.L.V.G.R.L.V}$$$$V2.0) |  |  |  |  |  |  |  |  |  |  |  |  |  |  |  |  |  |  |  |  | Drug uptake [1]: Active; Drug uptake [2]: Active
CC(C)C[C@H](NC(=O)[C@@H](NC(=O)c1cc(C(=O)O)ccc1-c1c2ccc(=[N+](C)C)cc-2oc2cc(N(C)C)ccc12)C(C)C)C(=O)NCC(=O)N[C@@H](CCCNC(=N)N)C(=O)N[C@H](C(=O)N[C@@H](CC(C)C)C(=O)NCC(=O)N[C@@H](CCCNC(=N)N)C(=O)N[C@H](C(=O)N[C@@H](CC(C)C)C(=O)NCC(=O)N[C@@H](CCCNC(=N)N)C(=O)N[C@H](C(=O)N[C@@H](CC(C)C)C(=O)NCC(=O)N[C@@H](CCCNC(=N)N)C(=O)O)C(C)C)C(C)C)C(C)C.[Cl-] (HELM PEPTIDE1{[CN(C)c1ccc2c(-c3ccc(C(=O)O)cc3C(=O)[*:2])c3ccc(=[N+](C)C)cc-3oc2c1].V.L.G.R.V.L.G.R.V.L.G.R.V.L.G.R}$$$$V2.0) |  |  |  |  |  |  |  |  |  |  |  |  |  |  |  |  |  |  |  |  | Drug uptake [1]: Active; Drug uptake [2]: Active
H-KVLKVLKVLKVL-OH | Active | 2.2 | Non-toxic | 1.1 | 9 | Active | 18.1 | 19.44 | Active | Active | > 10 | 4.5 | 2.3 | Active | 36.2 | Active | 2.2 | 18.1 | 2 | 9 | viability at 24 h, 100 µM [6]: 75%; viability at 24 h, 100 µM [8]: 75%; Survival [10]: 40%; Activity (Escherichia coli [11]): 2.9 10^4CFU/ml; Activity [12]: Non-toxic; Activity (Escherichia coli [15]): 3400 CFU/ml; Survival [18]: 80%; Activity (Escherichia coli [20]): 2656 CFU/ml; Activity (Staphylococcus aureus [22]): Active; Activity [24]: Non-toxic; Activity [30]: Non-toxic; Activity (Escherichia coli [31]): 9100 CFU/ml; MIC (Staphylococcus aureus [32]): 9 µM; Activity (Escherichia coli [33]): 7800 CFU/ml; Activity (Escherichia coli [34]): Active; Emerged As Swiftest Molecule; Activity (Escherichia coli [35]): Active
H-RLRLRLRLRL-OH | Active | 4.6 | Non-toxic | 2.3 | 4.6 | Active | 9.2 | 15.27 | Active | Active | 10 | 18.3 | 18.3 | Active | 9.2 | Active | 4.6 | 4.6 | 1.82 | 18.3 | Activity (Escherichia coli [36]): Active; Exhibited Rapid Kinetics; Activity (L6): Toxic; Activity (3T3-L1): Toxic; Survival [10]: 20%; Activity (Escherichia coli [11]): 2.6 10^4CFU/ml; Activity [12]: Non-toxic; Activity (Escherichia coli [15]): 7700 CFU/ml; Survival [18]: 80%; Activity (Escherichia coli [20]): 2.4 10^4CFU/ml; Activity [24]: Toxic; Activity [30]: Non-toxic; remaining at 1 h [37]: 70%; Activity (Escherichia coli [31]): 2.7 10^4CFU/ml; MIC (Staphylococcus aureus [32]): 18.3 µM; Activity (Escherichia coli [33]): 6.8 10^4CFU/ml; Activity ([38]; erythrocyte, 40 min, 100 µM): Non-toxic; Activity (Staphylococcus aureus [39]): Active; Exhibited Rapid Kinetics
H-RLVRLVRLVRLVRLV-OH | Active | 6.8 | Non-toxic | 1.7 | 1.7 | Active | 3.4 | 20.78 | Active | Active | 5 | 1.7 | 1.7 | Active | 3.4 | Active | 6.8 | 1.7 | 0.232 | 6.7 | Activity (Escherichia coli [36]): Active; Exhibited Rapid Kinetics; Activity (L6): Toxic; Activity (3T3-L1): Toxic; MIC (Staphylococcus aureus [32]): 3.4 µM; hemolysis at 40 min, 100 µM ([38]; human red blood cells, read-out: Activity): 20%; Activity (Staphylococcus aureus [39]): Active; Exhibited Rapid Kinetics
